The source of these data is patent publication US20130178517A1, “Methods And Compositions For Treatment Of Lipogenic Virus Related Conditions” (priority 2010, published 2013).

“Also recorded” adds a separate entry of the source.

In one assay the test system is Ad-36 in preadipocytes. The settings on record: preadipocytes in tissue culture; cited from earlier work.
Assay [1] relates to phosphorylated Akt in MCF-10A cells. As to the kind of experiment: Akt phosphorylation (Western blot) in MCF-10A cells with or without Ad-36 infection. It counts as cell-based, human. How it is done:
MCF-10A cells were infected with Ad-36 and treated with luteolin and/or metformin, then Akt phosphorylation was measured using Western blot. The top band is phosphorylated Akt. […] Lane 2 is MCF-10A cells infected with Ad-36 virus. Lane 3 is metformin, MCF-10A cells infected with Ad-36 virus. Lane 4 is uninfected MCF-10A cells treated with metformin. Lane 5 is MCF-10A cells infected with Ad-36 virus and treated with luteolin. Lane 6 is uninfected MCF-10A cells treated with luteolin. Lane 7 is MCF-10A cells infected with Ad-36 and treated with a combination of metformin and luteolin. Lane 8 is uninfected MCF-10A cells treated with a combination of metformin and luteolin.

The test system of assay [2] is Ad-36. The experiment in a line: Replication of Ad-36 in A549 cells assessed by cytopathic effect (CPE). It counts as cell-based, human adenovirus 36 in human A549 cells. The settings on record: multiple different doses, 100 TCID/well, CPE 3 and 4 days post-infection. As to the method: A549 cells were infected with a fixed amount of Ad-36 (100 TCID/well) for 2 hours, then media containing the virus was removed, replaced with serial dilutions of metformin, luteolin, or a combination. Cytopathic effect (CPE) was evaluated 3 days and 4 days post-infection (PI). Each condition had 8 wells. The efficacy of the different drug treatments was evaluated by determining whether there were fewer wells with CPE as compared to the control condition for the different treatment conditions, which reflected the degree to which a particular treatment was working to inhibit the virus.
On the technique in general: Damage to the host cells serves as the signal in cytopathic effect assays.

The test system of assay [3] is FAS protein in 3T3-L1 cells. The experiment in a line: FAS protein expression (Western blot) in 3T3-L1 preadipocyte cells with MDI and Ad-36. The settings on record: for FAS protein as dosage is increased: 3T3-L1 preadipocyte cells (FIG. 9 as described). Format: cell-based, mouse. How it is done:
The effects of Tridox on FAS protein expression were evaluated in 3T3-L preadipocyte cells. Control cells were maintained without exposure to Ad-36 or to the differentiation cocktail of methyl-isobutyl-xanthine, dexamethasone, and insulin (MDI). See, e.g., Ntambi and CheulKim, J. Nutrition, 120: […] for description of MDI differentiation cocktail.
For orientation: In western blotting, separated proteins are transferred to a membrane and probed.

The subject of assay [4] is FAS protein in MCF-7 cells infected with Ad-36. As to the kind of experiment: FAS protein expression (Western blot) in MCF-7 cells infected with Ad-36. It counts as cell-based, human. The settings on record: Ad-36-infected MCF-7 cells; for FAS protein expression: vs infected untreated control; for amount of FAS protein: range of 10 uM/L to 100 uM/L (FIG. 8). How it is done:
MCF-7 cells were incubated with Adv36 and a range of 10 uM/L to 100 uM/L of Didox or Tridox.
Human breast cancer cells (MCF-7) were infected with Ad-36 virus and treated with antiviral compounds Didox or Tridox. MCF-7 cells were incubated with Ad-36 and a range of about 10 μM/L to about 100 μM/L of Didox or Tridox. The control for the experiments was MCF-7 cells infected with Ad-36 that were not treated with an antiviral compound. Fifty micrograms of protein was loaded per lane on an SDS-PAGE gel, followed by Western blot analysis detecting FAS.

Assay [5] relates to MCF-10A cells infected with Ad-36. As to the kind of experiment: Growth rate (cell count) of MCF-10A cells infected with Ad-36. It counts as cell-based, human. The settings on record: 5 μM. How it is done:
FIG. 11 is a graph showing that luteolin reduces the growth rate of MCF-10A cells infected with Ad-36. […] Over a time course, cells were trypsinized and counted using a hemocytometer. As illustrated, ⋄ refers to mock infected cells incubated without luteolin; □ refers to mock infected cells treated with luteolin; Δ refers to Ad-36-infected cells incubated without luteolin; and × refers to Ad-36-infected cells treated with luteolin.
Luteolin reduces the growth rate of […] (MCF-10A) that have been infected with Ad-36 in tissue culture (FIG. 11). MCF-10A cells were infected with a multiplicity of infection (MOI) of 0.5 at day 0 for 2 hours, then replaced with fresh medium containing 5 μM luteolin or vehicle. At each time period, cells were trypsinzed and counted using a hemocytometer. Fresh luteolin (5 μM) was added on day 0 (after infection), day 3 and day 5 in order to insure a constant concentration of agent. […] The cells infected with Ad-36 and not exposed to luteolin had the highest growth rate, faster than cells without Ad-36. When luteolin is added, cell growth is slowed.

The test system of assay [6] is Ad-36. The experiment in a line: TCID50 of A549 cells exposed to Ad-36. Format: cell-based, human adenovirus 36 in human A549 cells. How it is done:
“TCID50” refers to 50% tissue culture infective dose (TCID50), an endpoint dilution assay that quantifies the amount of virus required to kill 50% of infected hosts or to produce a cytopathic effect in 50% of inoculated tissue culture cells.
The experimental conditions were assessed: (A) Control condition in which cells were infected with the virus throughout incubation, no luteolin added; (B) Cells and virus were both pretreated with luteolin, then the cells were incubated with both the virus and luteolin; and (C) Cells pretreated with luteolin only, luteolin removed, then cells incubated with virus but without luteolin. The TCID50 value was calculated for each group.

The mark [7] stands for this setting: MCF-10A cells infected with Ad-36 and treated.
Where [8] appears, read: uninfected MCF-10A cells treated.

In the case of `Nc1ccn(C[C@@H](CO)OCP(=O)(O)O)c(=O)n1` [Cidofovir], the “lipogenic effect of Ad-36” value in the assay on Ad-36 in preadipocytes is recorded as “block the lipogenic effect”.

Turning to `CN(C)C(=N)N=C(N)N` [metformin], the values for the Akt phosphorylation result in assay [1] (setting [7]) and in assay [1] (setting [8]) were “marked reduction” and “stimulated”, respectively. For the same compound, the “effect of Ad-36 on A549 cells (CPE, replication)” value with Ad-36 [2] is reported as “inhibits”.

For the compound `NC(=NO)c1cc(O)c(O)c(O)c1` [Tridox, 3,4,5 trihydroxybenzamidoxime], the “infection with Ad-36 (conclusion from FAS data)” value in assay [3] (3T3-L1 cells) was “inhibits infection with Ad-36”. For the same compound, in assay [3] (3T3-L1 cells exposed to Ad-36 in media containing 10 μM), the FAS protein levels entry is “even lower”. For the same compound, the FAS expression result in assay [3] (3T3-L1 cells infected with Ad-36, then incubated with MDI and 10 μM) is on record as “modest decrease”; in assay [3] (3T3-L1 cells pretreated with compound, then incubated with MDI and Ad-36), “more marked decrease; also recorded: greater decrease”. The “FAS protein as dosage is increased” value in assay [3] is listed as “decreased”. For the same compound, the FAS protein expression entry in assay [4] (about 10 μM), in assay [4] (about 50 μM) and in assay [4] (about 100 μM) was “decrease” each time. In assay [4], the “amount of FAS protein” value is “decreased”.

Take `O=c1cc(-c2ccc(O)c(O)c2)oc2cc(O)cc(O)c12` [luteolin]: the “growth rate (cell number)” value in assay [5] (Ad-36-infected (MOI 0.5) MCF-10A cells) is reported as “slowest growth rate; also recorded: slow growth rate”. Also, the “cell growth when compound is added” value in assay [5] (MCF-10A cells) was “slowed”. The Akt phosphorylation entry in assay [1] (setting [7]) was “marked reduction”; in assay [1] (setting [8]) it was “stimulated”. Moreover, the “effect of Ad-36 on A549 cells (CPE, replication)” value in the assay with Ad-36 [2] is “inhibits”. Further, the “virulence of Ad-36 infection / Ad-36 infection” value in the assay with Ad-36 [6] (A549 cells, overall conclusion) was “blocks virulence; also recorded: inhibits Ad-36 infection”. Besides, the TCID50 value result with Ad-36 [6] (Group B: cells and virus pretreated with luteolin, then cells incubated with virus and luteolin, vs control) was “slightly higher than control”; with Ad-36 [6] (Group C: cells pretreated with luteolin only, luteolin removed, then incubated with virus), “lowest and low”. Also, in the assay on Ad-36 [6] (second experiment (not shown), same condition as Group B, vs control), the TCID value entry is “increased almost twice as much as the control value”.

Turning to `O=C(NO)c1ccc(O)c(O)c1` [Didox, 3,4 dihydrobezohydoxamic acid], in assay [3], the “FAS protein as dosage is increased” value is recorded as “decreased”. Further, the FAS protein expression entry in assay [4] (about 50 μM) and in assay [4] (about 100 μM) was “decrease” throughout. Also, in assay [4], the “amount of FAS protein” value is “decreased”.
